The results in this text go back to patent US12162872B2, “Cycloalkylurea derivative” (Sumitomo Pharma Co., Ltd., priority 2019, dated 2024).

This test concerns the target T1, Human orexin receptor type 2 (Homo sapiens, UniProt O43614).
T1 construct: expressed in transfected cells; host or cells: CHO cells (transient expression)
T1 sequence (O43614 1-444): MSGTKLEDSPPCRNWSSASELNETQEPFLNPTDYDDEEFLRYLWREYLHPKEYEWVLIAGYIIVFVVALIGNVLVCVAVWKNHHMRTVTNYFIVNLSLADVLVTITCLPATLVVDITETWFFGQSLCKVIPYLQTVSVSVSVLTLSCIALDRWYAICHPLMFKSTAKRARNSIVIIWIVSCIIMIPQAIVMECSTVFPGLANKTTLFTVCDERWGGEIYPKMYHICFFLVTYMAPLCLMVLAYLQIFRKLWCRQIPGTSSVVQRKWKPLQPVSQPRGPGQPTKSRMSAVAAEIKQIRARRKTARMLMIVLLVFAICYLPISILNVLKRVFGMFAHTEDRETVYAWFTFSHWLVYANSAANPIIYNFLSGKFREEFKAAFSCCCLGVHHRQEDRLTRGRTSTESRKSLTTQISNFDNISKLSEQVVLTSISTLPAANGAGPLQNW
The experiment in a line: Test 2: Evaluation of agonist activity for orexin receptor type 2 (aequorin luminescence, intracellular calcium mobilization in CHO cells). Format: cell-based. The following applies: relative percentage of luminescence for the luminescence (100%) of Orexin A (100 pM); CHO cells transiently expressing human orexin receptor type 2 and apoaequorin; Orexin A Lot. 671009. On the procedure: Test 2: Evaluation of Agonist Activity for Orexin Receptor Type 2
Human orexin receptor type 2 and apoaequorin were transiently expressed in CHO cells, and the agonist activity was evaluated based on intracellular calcium mobilization with ligand stimulation. The CHO cells transiently-expressed human orexin receptor type 2 and apoaequorin were seeded on a 384-well plate by 2,000 cells/well, and then incubated for 16-22 hours. After the plate was returned to room temperature, Coelenterazine hcp (final concentration: 1 μM) was added to the plate, and the plate was allowed to stand at room temperature for 2 hours. And then, Orexin A (PEPTIDE INSTITUTE, INC., Lot. 671009) or each test compound was added to the plate, and the luminescence of the cells was measured with FDSS7000 (Hamamatsu Photonics K.K.), wherein Orexin A and each test compound were dissolved in DMSO (final concentration: 0.1%), and diluted with a buffer (Hanks, 20 mM HEPES, 0.1% BSA). The agonist activity of each test compound for orexin receptor type 2 was calculated as relative percentage of luminescence for the luminescence (100%) of Orexin A (100 pM).
(Calcium assays in cells follow changes in intracellular calcium, usually with a dye or a luminescent sensor.)
`CC(C)N1C[C@H]2CC[C@@H](C1)[C@H]2O[C@H]1CCCC(F)(F)[C@@H]1NC(=O)N1CCC(C)(c2noc([C@@H]3C[C@@H]3F)n2)CC1` [Example 100, N-[(1R,6S)-2,2-difluoro-6-{[(1R,5S,8R)-3-(propan-2-yl)-3-azabicyclo[3.2.1]octan-8-yl]oxy}cyclohexyl]-4-{5-[(1S,2S)-2-fluorocyclopropyl]-1,2,4-oxadiazol-3-yl}-4-methylpiperidine-1-carboxamide]: the “agonist activity (%)” value is listed as 340%. Regarding `CC(C)OC1CCN([C@H]2CCCC(F)(F)[C@@H]2NC(=O)N2CCC(C)(c3noc([C@@H]4C[C@@H]4F)n3)CC2)CC1` [Example 101, N-[(1R,6S)-2,2-difluoro-6-{4-[(propan-2-yl)oxy]piperidin-1-yl}cyclohexyl]-4-{5-[(1S,2S)-2-fluorocyclopropyl]-1,2,4-oxadiazol-3-yl}-4-methylpiperidine-1-carboxamide], the “agonist activity (%)” value was determined as 326%. With `CC(C)N1CC[C@H](O[C@H]2CCCC(F)(F)[C@@H]2NC(=O)N2CCC(C)(c3noc(C4CCC4)n3)CC2)C1` [Example 102, 4-(5-cyclobutyl-1,2,4-oxadiazol-3-yl)-N-[(1R,6S)-2,2-difluoro-6-{[(3S)-1-(propan-2-yl)pyrrolidin-3-yl]oxy}cyclohexyl]-4-methylpiperidine-1-carboxamide] the figure was 374%; with `CCC1(c2noc([C@@H]3C[C@@H]3F)n2)CCN(C(=O)N[C@@H]2[C@@H](O[C@H]3CCN(C(C)C)C3)CCCC2(F)F)CC1` [Example 103, N-[(1R,6S)-2,2-difluoro-6-{[(3S)-1-(propan-2-yl)pyrrolidin-3-yl]oxy}cyclohexyl]-4-ethyl-4-{5-[(1S,2S)-2-fluorocyclopropyl]-1,2,4-oxadiazol-3-yl}piperidine-1-carboxamide], 369%; with `CC(C)N1C[C@H]2CC[C@@H](C1)[C@@H]2O[C@H]1CCCC(F)(F)[C@@H]1NC(=O)N1CCC(C)(c2noc([C@@H]3C[C@@H]3F)n2)CC1` [Example 104, N-[(1R,6S)-2,2-difluoro-6-{[(1R,5S,8S)-3-(propan-2-yl)-3-azabicyclo[3.2.1]octan-8-yl]oxy}cyclohexyl]-4-{5-[(1S,2S)-2-fluorocyclopropyl]-1,2,4-oxadiazol-3-yl}-4-methylpiperidine-1-carboxamide], 289%.

For the compound `CC(C)N1[C@@H]2CC[C@H]1C[C@@H](O[C@H]1CCCC(F)(F)[C@@H]1NC(=O)N1CCC(C)(c3noc([C@@H]4C[C@@H]4F)n3)CC1)C2` [Example 105, N-[(1R,6S)-2,2-difluoro-6-{[(1R,3R,5S)-8-(propan-2-yl)-8-azabicyclo[3.2.1]octan-3-yl]oxy}cyclohexyl]-4-{5-[(1S,2S)-2-fluorocyclopropyl]-1,2,4-oxadiazol-3-yl}-4-methylpiperidine-1-carboxamide], the “agonist activity (%)” value was 359%.

Consider `CC(C)N1C[C@@H]2[C@H](C1)[C@H]2O[C@H]1CCCC(F)(F)[C@@H]1NC(=O)N1CCC(C)(c2noc([C@@H]3C[C@@H]3F)n2)CC1` [Example 106, N-[(1R,6S)-2,2-difluoro-6-{[(1R,5S,6S)-3-(propan-2-yl)-3-azabicyclo[3.1.0]hexan-6-yl]oxy}cyclohexyl]-4-{5-[(1S,2S)-2-fluorocyclopropyl]-1,2,4-oxadiazol-3-yl}-4-methylpiperidine-1-carboxamide], for which the “agonist activity (%)” value was found to be 220%.

Consider `CC(C)CN1CC[C@H](O[C@H]2CCCC(F)(F)[C@@H]2NC(=O)N2CCC(C)(c3noc([C@@H]4C[C@@H]4F)n3)CC2)C1` [Example 107, N-[(1R,6S)-2,2-difluoro-6-{[(3S)-1-(2-methylpropyl)pyrrolidin-3-yl]oxy}cyclohexyl]-4-{5-[(1S,2S)-2-fluorocyclopropyl]-1,2,4-oxadiazol-3-yl}-4-methylpiperidine-1-carboxamide], for which the “agonist activity (%)” value is recorded as 363%. With `CO[C@@H]1CN(C(C)C)C[C@H]1O[C@H]1CCCC(F)(F)[C@@H]1NC(=O)N1CCC(C)(c2noc([C@@H]3C[C@@H]3F)n2)CC1` [Example 108, N-[(1R,6S)-2,2-difluoro-6-{[(3R,4R)-4-methoxy-1-(propan-2-yl)pyrrolidin-3-yl]oxy}cyclohexyl]-4-{5-[(1S,2S)-2-fluorocyclopropyl]-1,2,4-oxadiazol-3-yl}-4-methylpiperidine-1-carboxamide] the figure was 292%.

`CC(C)N1CCC(C)(O[C@H]2CCCC(F)(F)[C@@H]2NC(=O)N2CCC(C)(c3noc([C@@H]4C[C@@H]4F)n3)CC2)CC1` [Example 109, N-[(1R,6S)-2,2-difluoro-6-{[4-methyl-1-(propan-2-yl)piperidin-4-yl]oxy}cyclohexyl]-4-{5-[(1S,2S)-2-fluorocyclopropyl]-1,2,4-oxadiazol-3-yl}-4-methylpiperidine-1-carboxamide]: the “agonist activity (%)” value is 359%. As to `CC(C)N1CCN([C@H]2CCCC(F)(F)[C@@H]2NC(=O)N2CCC(C)(c3noc([C@@H]4C[C@@H]4F)n3)CC2)[C@@H](C)C1` [Example 110, N-{(1R,6S)-2,2-difluoro-6-[(2S)-2-methyl-4-(propan-2-yl)piperazin-1-yl]cyclohexyl}-4-{5-[(1S,2S)-2-fluorocyclopropyl]-1,2,4-oxadiazol-3-yl}-4-methylpiperidine-1-carboxamide], the “agonist activity (%)” value is given as 380%.

For `CC(C)N1CCN([C@H]2CCCC(F)(F)[C@@H]2NC(=O)N2CCC(C)(c3noc([C@@H]4C[C@@H]4F)n3)CC2)[C@H](C)C1` [Example 111, N-{(1R,6S)-2,2-difluoro-6-[(2R)-2-methyl-4-(propan-2-yl)piperazin-1-yl]cyclohexyl}-4-{5-[(1S,2S)-2-fluorocyclopropyl]-1,2,4-oxadiazol-3-yl}-4-methylpiperidine-1-carboxamide], the “agonist activity (%)” value is reported as 382%.

With `CC(C)N(C)[C@@H]1CCN([C@H]2CCCC(F)(F)[C@@H]2NC(=O)N2CCC(C)(c3noc([C@@H]4C[C@@H]4F)n3)CC2)C1` [Example 112, N-[(1R,6S)-2,2-difluoro-6-{(3R)-3-[methyl(propan-2-yl)amino]pyrrolidin-1-yl}cyclohexyl]-4-{5-[(1S,2S)-2-fluorocyclopropyl]-1,2,4-oxadiazol-3-yl}-4-methylpiperidine-1-carboxamide], the “agonist activity (%)” value was found to be 376%. With `CC(C)N1CC[C@@H](N(C)[C@H]2CCCC(F)(F)[C@@H]2NC(=O)N2CCC(C)(c3noc([C@@H]4C[C@@H]4F)n3)CC2)C1` [Example 113, N-[(1R,6S)-2,2-difluoro-6-{methyl[(3R)-1-(propan-2-yl)pyrrolidin-3-yl]amino}cyclohexyl]-4-{5-[(1S,2S)-2-fluorocyclopropyl]-1,2,4-oxadiazol-3-yl}-4-methylpiperidine-1-carboxamide] the figure was 374%. Consider `CC(C)N(C)C1CCN([C@H]2CCCC(F)(F)[C@@H]2NC(=O)N2CCC(C)(c3noc([C@@H]4C[C@@H]4F)n3)CC2)CC1` [Example 114, N-[(1R,6S)-2,2-difluoro-6-{4-[methyl(propan-2-yl)amino]piperidin-1-yl}cyclohexyl]-4-{5-[(1S,2S)-2-fluorocyclopropyl]-1,2,4-oxadiazol-3-yl}-4-methylpiperidine-1-carboxamide], for which the “agonist activity (%)” value stood at 438%. With `CN(C1CC1)[C@H]1CCN([C@H]2CCCC(F)(F)[C@@H]2NC(=O)N2CCC(C)(c3noc([C@@H]4C[C@@H]4F)n3)CC2)C1` [Example 115, N-[(1R,6S)-6-{(3S)-3-[cyclopropyl(methyl)amino]pyrrolidin-1-yl}-2,2-difluorocyclohexyl]-4-{5-[(1S,2S)-2-fluorocyclopropyl]-1,2,4-oxadiazol-3-yl}-4-methylpiperidine-1-carboxamide] the figure was 403%; with `CC(C)CN1CC[C@H](O[C@H]2CCCC(F)(F)[C@@H]2NC(=O)N2CCC(C)(c3noc(C4CC4)n3)CC2)C1` [Example 116, 4-(5-cyclopropyl-1,2,4-oxadiazol-3-yl)-N-[(1R,6S)-2,2-difluoro-6-{[(3S)-1-(2-methylpropyl)pyrrolidin-3-yl]oxy}cyclohexyl]-4-methylpiperidine-1-carboxamide], 488%.

In the case of `CC(C)N1CCN(C[C@H]2CCCC(F)(F)[C@@H]2NC(=O)N2CCC(C)(c3noc([C@@H]4C[C@@H]4F)n3)CC2)CC1` [Example 117, N-[(1R,6R)-2,2-difluoro-6-{[4-(propan-2-yl)piperazin-1-yl]methyl}cyclohexyl]-4-{5-[(1S,2S)-2-fluorocyclopropyl]-1,2,4-oxadiazol-3-yl}-4-methylpiperidine-1-carboxamide], the “agonist activity (%)” value was found to be 465%.
